The text below walks through data of patent US10766882B2, “1,2-naphthoquinone based derivative and method of preparing the same” (YUNGJIN PHARM. CO., LTD., priority 2013, dated 2020).

The test system of one assay is C57BL/6J Lep ob/ob mice. Nature of the assay: Weight loss effects in obese mice (ob/ob). In kind it is in vivo. Particulars: vs 0.1% SLS controls. The protocol: 10 week-old C57BL/6J Lep ob/ob mice having genetic obesity characteristics available from ORIENTBIO were prepared. Two mice were raised in each polycarbonate breeding cage (200 W×260 L×130H (mm), Three-shine) in which temperature was 20 to 24° C., relative humidity was 35 to 65%, illuminance was 150 to 300 lux, night and day were 12 hours, and exhaust was performed at 10 to 15 air changes per hour. As a feed, low fat diet (11.9 kcal % fat, 5053, Labdiet) manufactured by ORIENTBIO was used. The feed was contained in a feeder and free intake was allowed. As drinking water, water, which was contained in a 250 mL polycarbonate based bottle, purified through a filter and a sterilizer was used and free intake was allowed.
The compound according to Example 1 synthesized in the present invention was orally administered to three C57BL/6J Lep ob/ob mice in amounts of 40 mg/kg, 80 mg/kg, and 120 mg/kg, respectively, once every day for two weeks. For administration, a disposable syringe fitted with a sonde for oral administration was used and 10 ml/kg of the compound was orally administered into the stomach. As controls, three C57BL/6J Lep ob/ob mice were administered 0.1% sodium lauryl sulfate (SLS) in an amount of 120 mg/kg in the same manner as described above. After administration, a time-dependent weight increase ratio, weight change, and intake amount were measured and results are illustrated in FIG. 1 below.
Weights of the experimental animals were measured immediately before administration of a test material and seven times a week from an administration initiation day to a test termination day. Increased total weights were calculated by subtracting weights measured on an experiment initiation day from weights measured one day before an experiment termination day. Food intake amounts were calculated by measuring feed supply amounts and remaining amounts twice a week from an initiation day of test material administration to a test termination day for each individual. […]
(§1) Experiments were performed under the same conditions as in Experimental Example 3-1 except that 15 week-old C57BL/6J Lep ob/ob mice having genetic obesity characteristics available from ORIENTBIO were prepared, the compounds according to Examples 5 and 6 were administered to three C57BL/6J Lep ob/ob mice in an amount of 150 mg/kg, 150 mg/kg of 0.1% SLS was administered to each of three C57BL/6J Lep ob/ob mice as controls, and experiments were performed for a total of one week. Weight increase ratios, weight change, and intake amounts depending on administration time were measured and results are illustrated in FIG. 5 below.
as §1, with “that 10” for “that 15”, “Examples 8, 9,” for “Examples 5”, “and 12” for “and 6”, “FIG. 6” for “FIG. 5”
Experiments were performed under the same conditions as in Experimental Example 3-1 except that 6 week-old C57BL/6J Lep ob/ob mice having genetic obesity characteristics available from ORIENTBIO were prepared, the compounds according to Examples 17, 18, 22, and 23 were administered to three C57BL/6J Lep ob/ob mice in an amount of 100 mg/kg, 100 mg/kg of 0.1% SLS was administered to each of three C57BL/6J Lep ob/ob mice as controls, and experiments were performed for a total of one week. Weight increase ratios, weight change, and intake amounts depending on administration time were measured and results are illustrated in FIG. 10 below. […]

The next assay addresses NQO1 protein (Homo sapiens, UniProt P15559). Briefly: NQO1 activity measurement (cytochrome C reduction). In kind it is biochemical. Particulars: 5 ng NQO1 protein, 200 μM NADH, 77 μM cytochrome C, 37° C., absorbance 550 nm for 10 minutes.
Another assay relates to Cells. Nature of the assay: Measurement of lactate change amount within cells. The class given is cell-based. The settings on record: PCA extract of cells, lactate measured from supernatant (Megazyme, K-LATE). The protocol:
Cells were treated with 400 μl of 6% PCA, and then collected and extracted. Centrifugation (13,000 rpm, 10 min) was performed. A precipitate was dried using a Speed-Vac and then a weight of dried precipitate was measured. A supernatant was neutralized using 400 μl of 1 M KOH and a final volume thereof was adjusted to 1 ml using 0.33 M KH2PO4/K2HPO4, pH 7.5. Centrifugation (13,000 rpm, 10 min) was performed and the amount of lactate was measured from a supernatant (Megazyme, K-LATE).

Setting [1] is: Exp. Ex. 3-3, FIG. 3: 11 week-old ob/ob mice, 100 mg/kg oral, total of 6 days.
Setting [2] is: Exp. Ex. 3-4, FIG. 4: 12 week-old ob/ob mice, 150 mg/kg oral, one week.
Setting [3] is: Exp. Ex. 3-5, FIG. 5: 15 week-old ob/ob mice, 150 mg/kg oral, one week.
Setting [4] is: Exp. Ex. 3-6, FIG. 6: 10 week-old ob/ob mice, 150 mg/kg oral, one week.
Where [5] appears, read: Exp. Ex. 3-7, FIG. 10: 6 week-old ob/ob mice, 100 mg/kg oral, one week.
[6] abbreviates: Exp. Ex. 3-8, FIG. 11: 10 week-old ob/ob mice, 150 mg/kg oral, five days.
Setting [7] is: Exp. Ex. 3-12, FIG. 15: 6 week-old ob/ob mice, 100 mg/kg oral, two weeks.

Sequence of NQO1 protein (P15559 whole entry, species assumed): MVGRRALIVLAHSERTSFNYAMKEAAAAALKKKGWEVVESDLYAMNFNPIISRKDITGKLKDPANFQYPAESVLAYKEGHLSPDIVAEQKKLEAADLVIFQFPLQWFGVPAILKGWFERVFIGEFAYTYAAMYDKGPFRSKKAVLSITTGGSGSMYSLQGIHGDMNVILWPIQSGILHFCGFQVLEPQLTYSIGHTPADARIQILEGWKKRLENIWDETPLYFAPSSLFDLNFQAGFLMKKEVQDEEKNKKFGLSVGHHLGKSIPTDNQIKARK

As to `CC(C)c1nc2c(n1C)-c1ccccc1C(=O)C2=O` [Example 3, 2-isopropyl-1-methyl-1H-naphtho[2,1-d]imidazole-4,5-dione], in the assay on C57BL/6J Lep ob/ob mice (setting [1]), the intake amount result is “significantly decreased” and the weight increase ratio result is given as “significantly decreased”. In addition, the “NQO1 activity (5 μM, [nmol cytochrome C reduced/min/μg protein])” value on NQO1 protein was 139 nmol cytochrome C reduced/min/μg protein. In addition, the “Lactate change amount within cells (nmol/mg cell)” value (from here on “Lactate change amount within cells”) with Cells turned out to be 11.3 nmol/mg cell.

On to `O=C1C(=O)c2[nH]c(-c3ccccc3)nc2-c2ccccc21` [Example 4, 2-phenyl-3H-naphtho[2,1-d]imidazole-4,5-dione], for which, in the assay with C57BL/6J Lep ob/ob mice (setting [2]), the weight change entry is given as “significantly decreased” and the weight increase ratio result was “significantly decreased”. For the same compound, the “NQO1 activity (5 μM, [nmol cytochrome C reduced/min/μg protein])” value at NQO1 protein is recorded as 122 nmol cytochrome C reduced/min/μg protein. The “Lactate change amount within cells” value with Cells stood at 9.1 nmol/mg cell.

For `CC(C)(C)c1nc2c([nH]1)C(=O)C(=O)c1ccccc1-2` [Example 5, 2-tert-butyl-3H-naphtho[2,1-d]imidazole-4,5-dione], in the assay with C57BL/6J Lep ob/ob mice (setting [2]), the intake amount entry is reported as “significantly decreased”, the weight change result is “significantly decreased” and the weight increase ratio result was “significantly decreased”. Besides, in the assay with C57BL/6J Lep ob/ob mice (setting [3]), the intake amount result is on record as “significantly decreased”, the weight change entry is reported as “significantly decreased” and the weight increase ratio entry was “significantly decreased”. Besides, the “NQO1 activity (5 μM, [nmol cytochrome C reduced/min/μg protein])” value on NQO1 protein is recorded as 153 nmol cytochrome C reduced/min/μg protein. Further, the “Lactate change amount within cells” value with Cells is recorded as 8.5 nmol/mg cell.

In the case of `O=C1C(=O)c2[nH]c(C3CCCCC3)nc2-c2ccccc21` [Example 6, 2-cyclohexyl-3H-naphtho[2,1-d]imidazole-4,5-dione], in the assay with C57BL/6J Lep ob/ob mice (setting [3]), the intake amount entry is “significantly decreased”, the weight change entry is on record as “significantly decreased” and the weight increase ratio result is recorded as “significantly decreased”. The “NQO1 activity (5 μM, [nmol cytochrome C reduced/min/μg protein])” value at NQO1 protein is 253 nmol cytochrome C reduced/min/μg protein. For the same compound, the “Lactate change amount within cells” value with Cells turned out to be 4.6 nmol/mg cell.

With `CC(C)Cc1nc2c([nH]1)C(=O)C(=O)c1ccccc1-2` [Example 8], in the assay with C57BL/6J Lep ob/ob mice (setting [4]), the intake amount result is listed as “significantly decreased”, the weight change result is given as “significantly decreased” and the weight increase ratio entry is “significantly decreased”. In addition, the “NQO1 activity (5 μM, [nmol cytochrome C reduced/min/μg protein])” value at NQO1 protein was 213 nmol cytochrome C reduced/min/μg protein. The “Lactate change amount within cells” value with Cells is 10.0 nmol/mg cell.

Consider `CCc1nc2c([nH]1)C(=O)C(=O)c1ccccc1-2` [Example 9], for which, in the assay with C57BL/6J Lep ob/ob mice (setting [4]), the intake amount entry is recorded as “significantly decreased”, the weight change entry was “significantly decreased” and the weight increase ratio entry is reported as “significantly decreased”. Further, on NQO1 protein, the “NQO1 activity (5 μM, [nmol cytochrome C reduced/min/μg protein])” value is given as 172 nmol cytochrome C reduced/min/μg protein. The “Lactate change amount within cells” value with Cells is on record as 8.0 nmol/mg cell.

On to `O=C1C(=O)c2[nH]c(C3CC3)nc2-c2ccccc21` [Example 12], for which, in the assay with C57BL/6J Lep ob/ob mice (setting [4]), the intake amount entry is given as “significantly decreased”, the weight change result was “significantly decreased” and the weight increase ratio result was “significantly decreased”. Moreover, on NQO1 protein, the “NQO1 activity (5 μM, [nmol cytochrome C reduced/min/μg protein])” value is on record as 184 nmol cytochrome C reduced/min/μg protein. In addition, the “Lactate change amount within cells” value in the assay on Cells stood at 7.0 nmol/mg cell.

Turning to `CC(C)c1nc2c([nH]1)C(=O)C(=O)c1cc(Cl)ccc1-2` [Example 17], in the assay with C57BL/6J Lep ob/ob mice (setting [5]), the intake amount entry is given as “significantly decreased in some sections”, the weight change entry is reported as “significantly decreased in some sections” and the weight increase ratio entry is reported as “significantly decreased in some sections”. In addition, the “NQO1 activity (5 μM, [nmol cytochrome C reduced/min/μg protein])” value on NQO1 protein is 206.9 nmol cytochrome C reduced/min/μg protein. The “Lactate change amount within cells” value in the assay on Cells amounted to 6.0 nmol/mg cell.

Consider `CC(C)c1nc2c([nH]1)C(=O)C(=O)c1cc(N)ccc1-2` [Example 18], for which, in the assay on C57BL/6J Lep ob/ob mice (setting [5]), the intake amount entry is on record as “significantly decreased in some sections”, the weight change entry is listed as “significantly decreased in some sections” and the weight increase ratio entry is reported as “significantly decreased in some sections”. Moreover, the “NQO1 activity (5 μM, [nmol cytochrome C reduced/min/μg protein])” value on NQO1 protein is 177.5 nmol cytochrome C reduced/min/μg protein. In the assay with Cells, the “Lactate change amount within cells” value was 6.6 nmol/mg cell.

On to `CC(C)c1nc2c([nH]1)C(=O)C(=O)c1cc(F)ccc1-2` [Example 22], for which, in the assay with C57BL/6J Lep ob/ob mice (setting [5]), the intake amount entry was “significantly decreased in some sections”, the weight change entry is “significantly decreased in some sections” and the weight increase ratio result was “significantly decreased in some sections”. Further, the “NQO1 activity (5 μM, [nmol cytochrome C reduced/min/μg protein])” value on NQO1 protein is 206.1 nmol cytochrome C reduced/min/μg protein. In addition, the “Lactate change amount within cells” value in the assay with Cells was determined as 7.3 nmol/mg cell.

Take `CC(C)c1nc2c([nH]1)C(=O)C(=O)c1cc(N(C)C)ccc1-2` [Example 23]: in the assay on C57BL/6J Lep ob/ob mice (setting [5]), the intake amount entry is reported as “significantly decreased in some sections”, the weight change entry is listed as “significantly decreased in some sections” and the weight increase ratio result is reported as “significantly decreased in some sections”. The “NQO1 activity (5 μM, [nmol cytochrome C reduced/min/μg protein])” value on NQO1 protein is 78.4 nmol cytochrome C reduced/min/μg protein. Moreover, in the assay on Cells, the “Lactate change amount within cells” value was found to be 5.6 nmol/mg cell.

For the compound `CCc1nc2c([nH]1)C(=O)C(=O)c1cc(F)ccc1-2` [Example 26], in the assay on C57BL/6J Lep ob/ob mice (setting [6]), the intake amount result is on record as “significantly decreased in some sections”, the weight change entry was “significantly decreased in some sections” and the weight increase ratio entry was “significantly decreased in some sections”. The “NQO1 activity (5 μM, [nmol cytochrome C reduced/min/μg protein])” value at NQO1 protein is on record as 223.5 nmol cytochrome C reduced/min/μg protein. For the same compound, in the assay on Cells, the “Lactate change amount within cells” value is 5.7 nmol/mg cell.

For `CC(C)c1nc2c(n1Cc1ccc(F)cc1)C(=O)C(=O)c1ccccc1-2` [Example 33], in the assay with C57BL/6J Lep ob/ob mice (setting [7]), the intake amount entry is given as “significantly decreased in some sections”, the weight change result is “significantly decreased in some sections” and the weight increase ratio result is listed as “significantly decreased in some sections”. On NQO1 protein, the “NQO1 activity (5 μM, [nmol cytochrome C reduced/min/μg protein])” value is reported as 152.5 nmol cytochrome C reduced/min/μg protein. In addition, the “Lactate change amount within cells” value in the assay with Cells is 4.7 nmol/mg cell.
